Source: paper PMC11898701, “Evaluating Therapeutic Efficacy of the Vascular Disrupting Agent OXi8007 Against Kidney Cancer in Mice” (Cancers, 2025)
Like-named read-outs stand apart in the source and are kept apart here. Marks after values point to notes of the source that are not given here.

Assays:
Renca cells = experiment: Renca sulforhodamine B (SRB) assay, cell growth inhibition; format: cell-based; conditions: Mus musculus, Renca, 48 h
Protocol: (§1) In two independent trials of Renca and Renca-luc cells were plated in triplicate at 8000 cells/well into 96-well plates and incubated for 24 h at 37 °C in a humidified incubator with 5% CO2 followed by a 48 h treatment period at ten-fold dilutions of the drug.

Renca-luc cells = experiment: Renca-luc sulforhodamine B (SRB) assay, cell growth inhibition; format: cell-based; conditions: Mus musculus, 48 h
Protocol: as §1

[1] = Pharmacokinetic study in Renca-luc tumor-bearing BALB/c mice; format: in vivo, mouse; conditions: for Tmax / half-life / Cmax: ip; for Cmax: read-out: Cmax
Protocol: Plasma and tissues were harvested at various time points (20 min to 16 h) from Renca-luc tumor-bearing BALB/c male mice following the administration of OXi8007 IP. Mice treated with 250 mg/kg were sacrificed at 20 min (n = 3), 1 h (n = 4), 2 h (n = 4), 4 h (n = 4), 8 h (n = 4), and 16 h (n = 4). Mice were anesthetized, exsanguinated, the tissues were blotted, and then they were weighed and frozen in liquid nitrogen. Homogenized plasma and tissue samples were extracted with acetonitrile with a bead mill; internal standard (CA4 or tri-labeled ^13C-OXi8006) was added to each sample to reach a final concentration of 10 ppb. Samples were centrifuged twice to remove precipitated proteins (16,260× g for 10 min at 4 °C). Clear supernatant was transferred into MS vials, and formic acid was added to a final concentration of 0.1% for LC-MS analysis. […] Mobile phase A consisted of 0.1% v/v formic acid in water, and mobile phase B was acetonitrile, which was mixed by the binary pump with an elution gradient at a flow rate of 0.6 mL/min. Data were analyzed using Xcalibur 4.6 software based on exact masses, and Phoenix WinNonlin 8.5.0 software was used to determine the pharmacokinetic parameters based on a non-compartmental model.

[2] = test system: orthotopic Renca-luc tumors; experiment: Acute response by oxygen-enhanced MSOT; format: in vivo, mouse
Protocol: (§2) For the multispectral optoacoustic tomography (MSOT), an iThera InVision 256-TF device with seven wavelengths (700, 730, 760, 780, 800, 820, and 875 nm) was used. Mice were shaved and depilated around the tumor region. The anesthetized mouse (1–2% isoflurane) was placed in the imaging chamber (34 °C) for 10 min to reach thermal equilibrium before imaging a single slice showing the largest cross-section of the tumor. An oxygen gas breathing challenge was performed to assess the dynamic changes in blood oxygenation. Images were generated using ViewMSOT version 4.2 with a back projection-based reconstruction algorithm followed by built-in fluence correction. Oxy- and deoxyhemoglobin were resolved using a linear regression approach.
(§3) Oxygen saturation (sO2) maps were analyzed using MATLAB 2022b (MathWorks Inc., Natick, MA, USA), and the images were visualized with Fiji. The percentage of hemoglobin saturation (sO2) was calculated as follows:[…]
Blank pixels represent areas lacking a detectable hemoglobin signal. The average sO2^MSOT was calculated pixelwise in each ROI for the air and oxygen breathing periods as sO2^MSOT (Air) and sO2^MSOT (O2), and the response to the oxygen gas challenge was as follows:∆sO2 = sO2 (O2) − sO2 (Air)(2) […]

[3] = test system: orthotopic XP258 human tumor xenografts; experiment: Acute response of XP258 tumors by MSOT; format: in vivo, mouse; conditions: XP258, four hours post-treatment, 250 mg/kg IP
Protocol: as §2, §3
Blank pixels represent areas lacking a detectable hemoglobin signal. The average sO2^MSOT was calculated pixelwise in each ROI for the air and oxygen breathing periods as sO2^MSOT (Air) and sO2^MSOT (O2), and the response to the oxygen gas challenge was as follows:∆sO2 = sO2 (O2) − sO2 (Air)(2)

Ewing sarcoma = test system: Ewing sarcoma; set-up: method as in PMID 19136249; conditions: 200 mg/kg twice weekly; cited from earlier work
[4] = test system: subcutaneous MDA-MB-231 tumors; set-up: method as in earlier work; conditions: cited from earlier work
[5] = male, BALB/c, mouse, in vivo, 250 mg/kg, brain, after OXi8007 250 mg/kg IP
[6] = male, BALB/c, mouse, in vivo, 250 mg/kg, heart, after OXi8007 250 mg/kg IP
[7] = male, BALB/c, mouse, in vivo, 250 mg/kg, left kidney, after OXi8007 250 mg/kg IP
[8] = male, BALB/c, mouse, in vivo, 250 mg/kg, liver, after OXi8007 250 mg/kg IP
[9] = male, BALB/c, mouse, in vivo, 250 mg/kg, lungs, after OXi8007 250 mg/kg IP
[10] = male, BALB/c, mouse, in vivo, 250 mg/kg, plasma, after OXi8007 250 mg/kg IP
[11] = male, BALB/c, mouse, in vivo, 250 mg/kg, spleen, after OXi8007 250 mg/kg IP
[12] = male, BALB/c, mouse, in vivo, 250 mg/kg, tumor and right kidney, after OXi8007 250 mg/kg IP

COc1ccc2c(C(=O)c3cc(OC)c(OC)c(OC)c3)c(-c3ccc(OC)c(OP(=O)(O)O)c3)[nH]c2c1 [OXi8007]
IC50 (Renca cells): 1450 ± 1 nM | IC50 (Renca-luc cells): 1560 ± 48 nM | Concentration in the tumor, molar equivalent ([1]; Renca-luc tumor, from 15 ng/mg): 32 µM | Concentration in the tumor ([1]; Renca-luc tumor, maximum): 15 ng/mg | AUC ([1]; brain, after OXi8007 250 mg/kg IP): 0.11 ng·h/mg | AUC ([1]; heart, after OXi8007 250 mg/kg IP): 1.32 ng·h/mg | AUC ([1]; left kidney, after OXi8007 250 mg/kg IP): 2.05 ng·h/mg | AUC ([1]; liver, after OXi8007 250 mg/kg IP): 12.67 ng·h/mg | AUC ([1]; lungs, after OXi8007 250 mg/kg IP): 2.3 ng·h/mg | concentration at 4 h ([1]; male, BALB/c, mouse, in vivo, 250 mg/kg, plasma, within 4 h after OXi8007 IP): 10000 ng/mL | Tmax ([1]; male, BALB/c, mouse, in vivo, 250 mg/kg, Renca-luc tumors, IP administration, read-out: Time to maximum concentration in tumors): ≤ 60 min | half-life [1, 5]: 30.6 min | Cmax [1, 5]: 70 ng/g | Tmax ([1]; male, BALB/c, mouse, in vivo, 250 mg/kg, brain, after OXi8007 250 mg/kg IP, read-out: Tmax (converted)): 60 min | half-life [1, 6]: 36.6 min | Cmax [1, 6]: 1620 ng/g | Tmax ([1]; male, BALB/c, mouse, in vivo, 250 mg/kg, heart, after OXi8007 250 mg/kg IP, read-out: Tmax (converted)): 20 min | half-life [1, 7]: 70.8 min | Cmax [1, 7]: 1400 ng/g | Tmax ([1]; male, BALB/c, mouse, in vivo, 250 mg/kg, left kidney, after OXi8007 250 mg/kg IP, read-out: Tmax (converted)): 20 min | half-life [1, 8]: 66 min | Cmax [1, 8]: 13400 ng/g | Tmax ([1]; male, BALB/c, mouse, in vivo, 250 mg/kg, liver, after OXi8007 250 mg/kg IP, read-out: Tmax (converted)): 20 min | half-life [1, 9]: 42 min | Cmax [1, 9]: 1610 ng/g | Tmax ([1]; male, BALB/c, mouse, in vivo, 250 mg/kg, lungs, after OXi8007 250 mg/kg IP, read-out: Tmax (converted)): 20 min | half-life [1, 10]: 49 min | half-life ([1]; male, BALB/c, mouse, in vivo, 250 mg/kg, plasma, after OXi8007 250 mg/kg IP, Renca-luc tumor-bearing BALB/c mice): 49.2 min | Cmax [1, 10]: 453 µg/mL | Tmax ([1]; male, BALB/c, mouse, in vivo, 250 mg/kg, plasma, after OXi8007 250 mg/kg IP, read-out: Tmax (converted)): 20 min | half-life [1, 11]: 39 min | Cmax [1, 11]: 990 ng/g | Tmax ([1]; male, BALB/c, mouse, in vivo, 250 mg/kg, spleen, after OXi8007 250 mg/kg IP, read-out: Tmax (converted)): 60 min | half-life [1, 12]: 120 min | Cmax [1, 12]: 15000 ng/g | Tmax ([1]; male, BALB/c, mouse, in vivo, 250 mg/kg, tumor and right kidney, after OXi8007 250 mg/kg IP, read-out: Tmax (converted)): 60 min | Plasma concentration ([1]; plasma, maximum, after OXi8007 IP): about 450 µg/mL | AUC ([1]; plasma, after OXi8007 250 mg/kg IP, zero to last quantifiable concentration): 511 ^# h × ng/µL | AUC ([1]; spleen, after OXi8007 250 mg/kg IP): 1.41 ng·h/mg | AUC ([1]; tumor and right kidney, after OXi8007 250 mg/kg IP): 36.31 ng·h/mg | Period of vascular hypoxiation to plateau (MSOT) ([2]; 350 mg/kg IP in situ using a catheter, while breathing O2): about 30 min | Time to hypoxiation (photoacoustic imaging) ([2]; after intraperitoneal administration): ≤ 30 min | Tumor vascular oxygenation (MSOT) [3]: less well oxygenated and less responsive to the oxygen gas breathing challenge | Tumor growth delay (Ewing sarcoma): no tumor growth delay | Tumor growth delay [4]: significant tumor growth delay
